Test results published in patent publication US9132131B2, “Use of adenosine A3 receptor agonists for treatment of neuropathic pain” (Saint Louis University, priority 2011, dated 2015).

How the values were obtained:
[1] = system: CCI of the sciatic nerve (mechano-allodynia); experiment: CCI model of neuropathic pain, mechano-allodynia (von Frey PWT); format: in vivo, mice
Description: CCI model of neuropathic pain. CCI to the sciatic nerve of the left hind leg in mice was performed under general anaesthesia using the well-characterized Bennett model. Briefly, mice (weighing 25-30 g at the time of surgery) were anesthetized with 3% isoflurane/100% O2 inhalation and maintained on 2% isoflurane/100% O2 for the duration of surgery. The left thigh was shaved, scrubbed with Nolvasan® and a small incision (1-1.5 cm in length) was made in the middle of the lateral aspect of the left thigh to expose the sciatic nerve. The nerve was loosely ligated around the entire diameter of the nerve at three distinct sites (spaced 1 mm apart) using silk sutures (6.0). The surgical site was closed with a single muscle suture and a skin clip. Pilot studies established that under our experimental conditions peak mechano-allodynia develops by day 5-day 7 (D5-D7) following CCI. Test substances or their vehicles were given subcutaneously (s.c.), intraperitoneally (i.p.) or orally by gavage (0.1 ml) at peak mechano-allodynia (D7).
Behavioral testing. […] The plantar aspect of hindpaws were probed three times with calibrated von Frey filaments (Stoelting, mice: 0.07-2.00 grams; rats: 0.407-26 grams) according to the “up-and-down” method. […] Briefly, each rat was placed in a Plexiglas chamber (28×40×35-cm, wire mesh floor) and after its acclimation, a servo-controlled mechanical stimulus was applied to the plantar surface that exerted a progressively increasing punctate pressure up to 50 grams within 10 seconds. Mechanical threshold was assessed three times at each time point to yield a mean value, reported as PWT (grams). […] Mechano-hyperalgesia was assessed in rats by the Randall and Sellitto paw pressure test using an analgesiometer (Ugo Basile). The nociceptive threshold was defined as the force (grams) at which the rat withdrew its paw (cut off set at 250 grams).
Determining ED50 values. Dose response data were curve-fitted using the least sum of square method by a normalized 4-parameter, variable slope non-linear analysis of the % Reversal of Mechano-allodynia in CCI and % Prevention of Mechano-allodynia or Mechano-hyperalgesia in CIPN using GraphPad Prism (Release 5.03, GraphPad Software, Inc.) from which the ED50 was determined and reported with the 95% confidence interval (95% CI). In the CCI model, the % Reversal of Mechano-allodynia=(PWT1h−PWTD7)/(PWTD0−PWTD7)×100, where PWTD0=Paw Withdrawal Threshold (g) at D0, PWT1h=Paw Withdrawal Threshold (g) at 1 hour after the administration of IB-MECA, gabapentin, amitriptyline, or combinations of IB-MECA with gabapentin or amitriptyline, and PWTD7=Paw Withdrawal Threshold (grams) at D7 prior to drug administration.
Statistical Analysis. Data are expressed as mean±SD for n animals. Behavioral data were analyzed by two-way repeated measures ANOVA with Bonferroni comparisons (full time course studies) or one-way ANOVA Dunnett's comparisons (1 hour behavioral data). The dose response curves were compared to a globally fitted curve using the extra sum-of-squares F-test comparisons to determine whether the data represented distinct curves between treatments. Significant differences were defined at a P<0.05. All statistical analysis was performed using GraphPad Prism (v5.03, GraphPad Software, Inc.).

[2] = system: motor function (Rotarod latency); experiment: Rotarod test; format: in vivo, mice; settings: 0.5 μmol/kg i.p., 30, 60, 120 minutes
Description: Rotarod test in mice: Mice were trained before experimentation for their ability to remain for 60 seconds on a revolving Rotarod for mice apparatus (Ugo Basile; accelerating units increasing from 5 to 40 rpm in 60 sec). Mice were injected i.p. with IB-MECA, MRS1898 (0.5 μmol/kg) or vehicle (0.1% DMSO in saline) and then examined at 30, 60 and 120 minutes after administration for motor impairments on the Rotarod. The latency time to fall off the Rotarod was determined with a cut-off time of 120 seconds.

[3] = system: acute nociception (hot plate latency); experiment: Hot plate assay for acute nociception; format: in vivo, mice; settings: 0.5 μmol/kg
Description: Tail flick and hot plate assay in mice for acute nociception. The tail flick test, which measures latency(s) of tail withdrawal from a noxious radiant heat source (Ugo Basile; model number 37360) was used to measure thermal nociceptive sensitivity in mice with baseline latencies of 3-5 seconds and a cut-off time of 15 seconds to prevent tissue injury. Tail flick latencies were taken before and at 30, 60 and 120 minutes after i.p. injection of IB-MECA, MRS1898 (0.5 μmol/kg) or its vehicle (0.1% DMSO in saline). For the hot plate test, nociceptive thresholds were determined as previously reported by our group by measuring latencies (in seconds) of mice placed in a transparent glass cylinder on a hot plate maintained at 52° C.. Responses indicative of nociception included intermittent lifting and/or licking of the hindpaws or escape behavior. Hot plate latencies were taken in mice from all groups before and after drug administration. A cut-off latency of 15 seconds was employed to prevent tissue damage.

[4] = system: bortezomib-induced neuropathic pain; experiment: Bortezomib-induced neuropathic pain (mechano-allodynia, mechano-hyperalgesia); format: in vivo, rats
Description: Bortezomib or vehicle (5% Tween 80, 5% ethanol) was injected i.p. in rats on five consecutive days (D0-D4; 0.2 mg/kg) for a final cumulative dose of 1 mg/kg (G. J. Bennett and W. H. Xiao, personal communication). Test substances or their vehicle were given i.p. (0.2 ml) 30 min before the chemotherapeutic agent or its vehicle on D0 (baseline) and then daily until D15 or D17. Behavioral responses (mechano-allodynia and mechano-hyperalgesia) were measured on D0 prior to the first i.p. injection of the chemotherapeutic agent and subsequently at various time points. If testing coincided with a day when rats received test substance, behavioral measurements were taken always before the injection of the test substance. Chemotherapeutic treatments result in bilateral allodynia and hyperalgesia without differences in left and right paw withdrawal threshold (PWT, grams) in any group at any time point, thus values from both paws were averaged.
Behavioral testing. […] The plantar aspect of hindpaws were probed three times with calibrated von Frey filaments (Stoelting, mice: 0.07-2.00 grams; rats: 0.407-26 grams) according to the “up-and-down” method. […] Mechanical threshold was assessed three times at each time point to yield a mean value, reported as PWT (grams). […] Mechano-hyperalgesia was assessed in rats by the Randall and Sellitto paw pressure test using an analgesiometer (Ugo Basile). […]

SMILES: CNC(=O)[C@H]1O[C@@H](n2cnc3c(NCc4cccc(I)c4)ncnc32)[C@H](O)[C@@H]1O [IB-MECA, N^6-(3-iodobenzyl)-adenosine-5′-N-methyluronamide]
- anti-allodynic effect of low dose alone ([1]; 0.2 μmol/kg): devoid of anti-allodynic effects
- reversal of mechano-allodynia on consecutive daily injections ([1]; 0.5 μmol/kg i.p. daily D8-D15, compared to D7): reversed mechano-allodynia to the same degree as observed on D7
- effect on PWT in contralateral paws ([1]; D7 after CCI, drug alone): lacked effect
- time of maximal reversal of mechano-allodynia ([1]; after single administration on D7): ≤ 1 h
- onset of reversal of allodynia ([1]; i.p. on D7): 30 min
- Emax, reversal of mechano-allodynia ([1]; mice, D7 after CCI, drug alone): 100%
- ED50, reversal of mechano-allodynia ([1]; mice, D7 after CCI, ipsilateral paw, at time of maximal reversal, drug alone (IB-MECA i.p., morphine s.c., gabapentin i.p., amitriptyline oral)): 0.4 µmol/kg
- reversal of mechano-allodynia in ipsilateral paws ([1]; single dose D7, IB-MECA 0.2-2, CI-IB-MECA 0.6, MRS1898 0.5 μmol/kg i.p., morphine 0.11-35 s.c., gabapentin 18-584 i.p., amitriptyline 3-191 μmol/kg oral): reversed allodynia
- Rotarod deficits [2]: did not induce Rotarod deficits
- effect on the hot plate [3]: had no effect
- effect on development of bortezomib-induced mechano-allodynia and mechano-hyperalgesia ([4]; 0.2 μmol/kg/d (not shown)): blocked the development
- neuropathic pain after treatment was discontinued on D17 ([4]; bortezomib model): did not emerge
